Each structure is given as a SMILES string.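 1) Cells in 96-well plates. 2) Compound, 48 h, 5 concentrations. 3) Linear interpolation between surrounding doses. 4) Unreached endpoint = highest concentration. GI50 = concentration required for 50% inhibition of growth. TGI denotes the concentration required for complete inhibition of growth.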 *1 amine or outer side, *2 acyl side, *3 side chain or, on linkers, in order; H or OH if unused. Where a SMILES comes first, the peptide text is derived from it. Bridges are numbered along the chain shown (N, C = ends). Roman numbers before positions name the chains, in order. X23 = CCCCCCCCCCCCCCC(=O)NC(CCCCN[*:2])C(=O)CN1CCCC1C(=O)[*:1]

Test systems include SN12C renal; TK-10 renal; SK-MEL-2 melanoma; MDA-N; T-47D breast; SF-295 CNS; HCC-2998 colon; KM20L2 colon; DLD-1 colon; XF 498 CNS; RXF-631 renal.
Holding throughout (test): NCI tumour cell line growth inhibition, 48 h

Regarding `CN(CCNC(=O)c1cn(C)c2c1ccc1cc(Cl)ccc12)CCNC(=O)c1cn(C)c2c1ccc1cc(Cl)ccc12`, the TGI in the assay with SN12C renal worked out at 3.37 µM; with TK-10 renal, 18.2 µM; with SK-MEL-2 melanoma, 13.7 µM; in the assay on MDA-N it was 3.41 µM.
Regarding `OCCSCc1cc(Cl)cc(Cl)c1O`, the TGI with T-47D breast, in the assay on SN12C renal, in the assay on TK-10 renal, with SF-295 CNS, with MDA-N and in the assay with HCC-2998 colon was more than 100 µM each time.
Regarding `O=C1CSc2sc(=S)sc2S1`, the TGI with SN12C renal, in the assay on KM20L2 colon, in the assay with DLD-1 colon, in the assay with SF-295 CNS, in the assay with XF 498 CNS and in the assay on SK-MEL-2 melanoma was more than 100 µM each time. In the assay on HCC-2998 colon, this compound had a TGI of more than 100 µM.
For the compound `Cc1cc(O)c2cc3c(O)c(O)ccc3cc2c1`, the TGI worked out at 6.28 µM in the assay on T-47D breast; 17.3 µM in the assay with SN12C renal; 33.7 µM in the assay on TK-10 renal; 10.8 µM with SF-295 CNS; 3.22 µM with SK-MEL-2 melanoma; 8.86 µM in the assay on MDA-N. The TGI in the assay on HCC-2998 colon turned out to be 16.4 µM.
For `CC(C)(C)OC(=O)N1CCCC1C(=O)NCCNc1ccc(NCCNC(=O)C2CCCN2C(=O)OC(C)(C)C)c2c1C(=O)c1ccccc1C2=O` (stereo unspecified), the TGI with TK-10 renal stood at 49.1 µM; with SF-295 CNS it was 32 µM; in the assay with SK-MEL-2 melanoma, 38.5 µM; with HCC-2998 colon it was 25.7 µM.
Turning to `O=C1NC2(NC(=O)C1=O)Nc1ccccc1S2`, the TGI in the assay with SN12C renal was more than 61.4 µM; in the assay with KM20L2 colon, more than 100 µM; in the assay on DLD-1 colon, more than 67.5 µM; in the assay on TK-10 renal, more than 100 µM; with RXF-631 renal it was 47.9 µM; with SF-295 CNS, more than 100 µM. Further, the TGI with SK-MEL-2 melanoma and with HCC-2998 colon was more than 100 µM each time.
As to `Cc1ccc(NC(=O)CC(=O)n2nc(-c3ccccc3)c(N=Nc3ccccc3C(=O)O)c2-c2ccccc2)cc1`, the TGI in the assay on SN12C renal, in the assay with KM20L2 colon, with DLD-1 colon, with TK-10 renal, with RXF-631 renal and in the assay with SF-295 CNS was more than 100 µM throughout. Besides, the TGI in the assay with SK-MEL-2 melanoma and in the assay with HCC-2998 colon was more than 100 µM each time.
For the compound `Nc1nccc2c1ncn2C1C=C(CO)C(O)C1O` (stereo unspecified), the GI50 in the assay with SN12C renal is 0.351 µM; in the assay on DLD-1 colon, 104 µM; with TK-10 renal it was 29.4 µM; with RXF-631 renal, 902 µM; with XF 498 CNS it was 817 µM; in the assay on HCC-2998 colon, 3.28 µM. Further, the TGI is more than 1000 µM in the assay with SN12C renal; more than 1000 µM with DLD-1 colon; more than 1000 µM in the assay on TK-10 renal; more than 1000 µM in the assay with RXF-631 renal; more than 1000 µM with XF 498 CNS; 99.1 µM in the assay on SK-MEL-2 melanoma. Besides, in the assay on HCC-2998 colon, the TGI is more than 1000 µM.
As for `O=C1/C(=C/c2ccc3c(c2)OCO3)Sc2scc(-c3ccc(O)c(O)c3)[n+]21`, the TGI was more than 100 µM in the assay on T-47D breast; 4.7 µM in the assay with SN12C renal; 3.71 µM in the assay with TK-10 renal; 25.5 µM in the assay with SF-295 CNS; 24.8 µM in the assay on SK-MEL-2 melanoma; 9.81 µM with MDA-N. In addition, in the assay on HCC-2998 colon, the TGI came to 3.64 µM.
With `CCCCCCCCCCCCCCC(=O)NC(CCCCNC(=O)C1CCCN1C(=O)C(CCCCN)NC(=O)C(CCCCN)NC(=O)C(CCCCN)NC(=O)C(CCCNC(=N)N)NC(=O)C(CCCCN)NC(=O)C(N)C(C)C)C(=O)CN1CCCC1C(=O)NCC(=O)NC(Cc1ccccc1)C(=O)N1CCCC1C(=O)NC(CO)C(=O)NC(Cc1ccc(O)cc1)C(=O)NC(CCCCN)C(=O)NC(CC(C)C)C(=O)NC(CCCNC(=N)N)C(=O)N1CCCC1C(=O)NCC(N)=O` (stereo unspecified) (I: GFPSYKLRPG-NH2 / II: H-VKRKKKP; linker I:N-II:C via X23; configuration not given here), the GI50 with T-47D breast is 3.17 µM; in the assay with TK-10 renal it was 0.704 µM; with SF-295 CNS, 18.1 µM; with SK-MEL-2 melanoma, 51.7 µM; in the assay on HCC-2998 colon, 2.34 µM. The TGI with T-47D breast was 13.9 µM; with TK-10 renal it was 13.7 µM; in the assay with SF-295 CNS, 59.3 µM; in the assay with SK-MEL-2 melanoma it was more than 100 µM; with HCC-2998 colon, 8.59 µM.
For `O=[P+](O)c1cccs1`, the TGI with SN12C renal, with KM20L2 colon, with DLD-1 colon, with TK-10 renal, with SF-295 CNS and in the assay on XF 498 CNS was more than 100 µM each time.
For the compound `CCc1cccc(C(C)C)c1NC1=C([n+]2ccc(C)cc2)C(=O)c2ccccc2C1=O`, the TGI in the assay on T-47D breast was determined as 2.24 µM; in the assay with SN12C renal, 8.35 µM; in the assay on TK-10 renal, 29.1 µM; in the assay with SF-295 CNS it was 18.1 µM; with SK-MEL-2 melanoma, 28.9 µM; with HCC-2998 colon, 20.9 µM.
